# Measurements: PubChem BioAssay AID256 (DTP/NCI, 2004)
# Where “and” joins values, the source holds several entries; their conditions need not be identical. Identical values can stand only once. Inconclusive results and toxic doses are left out.
# Tested on: CD2F1 mice, L1210 leukemia ip, survival T/C
# Test: NCI In Vivo Anticancer Drug Screen. Data for tumor model L1210 Leukemia (intraperitoneal) in CD2F1 (CDF1) mice
# Conditions: higher = longer survival
# Method in brief: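 Read-out first: treated-group measurement over vehicle-control measurement, expressed as a ratio. Animals bore a transplanted tumor line and were dosed with compound or vehicle.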
# [1] = endpoint: mean survival time, dose: 100.0 mg/kg/injection, schedule: Q04DX003 (ip), vehicle: Klucel (hydroxypropylcellulose) (HPC)
# [2] = endpoint: mean survival time, dose: 200.0 mg/kg/injection, schedule: Q04DX003 (ip), vehicle: Klucel (hydroxypropylcellulose) (HPC)
# [3] = endpoint: mean survival time, dose: 100.0 mg/kg/injection, schedule: Q01DX009 (ip), vehicle: saline with Tween-80
# [4] = endpoint: mean survival time, dose: 200.0 mg/kg/injection, schedule: Q01DX009 (ip), vehicle: saline with Tween-80
# [5] = endpoint: mean survival time, dose: 400.0 mg/kg/injection, schedule: Q01DX009 (ip), vehicle: saline with Tween-80
smiles,measurement,setting,value
CC(O)C1OC(n2cnc3c(=O)[nH]cnc32)C(O)C1O (stereo unspecified),T/C,"endpoint: mean survival time, dose: 12.5 mg/kg/injection, schedule: Q01DX005 (ip), vehicle: distilled water + Tween-80",114 % of control
same,T/C,"endpoint: mean survival time, dose: 25.0 mg/kg/injection, schedule: Q01DX005 (ip), vehicle: distilled water + Tween-80",112 % of control
same,T/C,"endpoint: mean survival time, dose: 50.0 mg/kg/injection, schedule: Q01DX005 (ip), vehicle: distilled water + Tween-80",104 % of control
same,T/C,"endpoint: mean survival time, dose: 100.0 mg/kg/injection, schedule: Q01DX005 (ip), vehicle: distilled water + Tween-80",102 % of control
same,T/C,"endpoint: mean survival time, dose: 200.0 mg/kg/injection, schedule: Q01DX005 (ip), vehicle: distilled water + Tween-80",100 % of control
same,T/C,"endpoint: median survival time, dose: 8.75 mg/kg/injection, schedule: Q01DX005 (ip), vehicle: distilled water + Tween-80",108 % of control
same,T/C,"endpoint: median survival time, dose: 12.5 mg/kg/injection, schedule: Q01DX005 (ip), vehicle: water",97 % of control
same,T/C,"endpoint: median survival time, dose: 17.5 mg/kg/injection, schedule: Q01DX005 (ip), vehicle: distilled water + Tween-80",108 % of control
same,T/C,"endpoint: median survival time, dose: 25.0 mg/kg/injection, schedule: Q01DX005 (ip), vehicle: saline with Tween-80",98 % of control
same,T/C,"endpoint: median survival time, dose: 25.0 mg/kg/injection, schedule: Q01DX005 (ip), vehicle: water",97 % of control
same,T/C,"endpoint: median survival time, dose: 35.0 mg/kg/injection, schedule: Q01DX005 (ip), vehicle: distilled water + Tween-80",102 % of control
same,T/C,"endpoint: median survival time, dose: 50.0 mg/kg/injection, schedule: Q01DX005 (ip), vehicle: saline with Tween-80",107 % of control
same,T/C,"endpoint: median survival time, dose: 50.0 mg/kg/injection, schedule: Q01DX005 (ip), vehicle: water",109 % of control
same,T/C,"endpoint: median survival time, dose: 70.0 mg/kg/injection, schedule: Q01DX005 (ip), vehicle: distilled water + Tween-80",97 % of control
same,T/C,"endpoint: median survival time, dose: 100.0 mg/kg/injection, schedule: Q01DX005 (ip), vehicle: saline with Tween-80",98 % of control
same,T/C,"endpoint: median survival time, dose: 100.0 mg/kg/injection, schedule: Q01DX005 (ip), vehicle: water",98 % of control
same,T/C,"endpoint: median survival time, dose: 140.0 mg/kg/injection, schedule: Q01DX005 (ip), vehicle: distilled water + Tween-80",97 % of control
same,T/C,"endpoint: median survival time, dose: 200.0 mg/kg/injection, schedule: Q01DX005 (ip), vehicle: saline with Tween-80",109 % of control
same,T/C,"endpoint: median survival time, dose: 200.0 mg/kg/injection, schedule: Q01DX005 (ip), vehicle: water",102 % of control
same,T/C,"endpoint: median survival time, dose: 400.0 mg/kg/injection, schedule: Q01DX005 (ip), vehicle: saline with Tween-80",101 % of control
COc1cccnc1/C=N/NC(N)=S,T/C,"endpoint: mean survival time, dose: 3.13 mg/kg/injection, schedule: Q01DX009 (ip), vehicle: saline with Tween-80",118 % of control
same,T/C,"endpoint: mean survival time, dose: 5.54 mg/kg/injection, schedule: Q01DX001 (ip), vehicle: saline with Tween-80",103 % of control
same,T/C,"endpoint: mean survival time, dose: 5.54 mg/kg/injection, schedule: Q01DX009 (ip), vehicle: saline with Tween-80",200 % of control
same,T/C,"endpoint: mean survival time, dose: 5.54 mg/kg/injection, schedule: Q04DX001 (ip), vehicle: saline with Tween-80",102 % of control
same,T/C,"endpoint: mean survival time, dose: 6.25 mg/kg/injection, schedule: Q04DX002 (ip), vehicle: saline with Tween-80",104 % of control
same,T/C,"endpoint: mean survival time, dose: 8.32 mg/kg/injection, schedule: Q01DX001 (ip), vehicle: saline with Tween-80",105 % of control
same,T/C,"endpoint: mean survival time, dose: 8.32 mg/kg/injection, schedule: Q01DX009 (ip), vehicle: saline with Tween-80",162 % of control
same,T/C,"endpoint: mean survival time, dose: 8.32 mg/kg/injection, schedule: Q04DX001 (ip), vehicle: saline with Tween-80",105 % of control
same,T/C,"endpoint: mean survival time, dose: 12.5 mg/kg/injection, schedule: Q01DX001 (ip), vehicle: saline with Tween-80",109 % of control
same,T/C,"endpoint: mean survival time, dose: 12.5 mg/kg/injection, schedule: Q01DX009 (ip), vehicle: saline with Tween-80",152 % of control
same,T/C,"endpoint: mean survival time, dose: 12.5 mg/kg/injection, schedule: Q04DX001 (ip), vehicle: saline with Tween-80",111 % of control
same,T/C,"endpoint: mean survival time, dose: 12.5 mg/kg/injection, schedule: Q04DX002 (ip), vehicle: saline with Tween-80",104 % of control
same,T/C,"endpoint: mean survival time, dose: 18.8 mg/kg/injection, schedule: Q01DX001 (ip), vehicle: saline with Tween-80",109 % of control
same,T/C,"endpoint: mean survival time, dose: 18.8 mg/kg/injection, schedule: Q04DX001 (ip), vehicle: saline with Tween-80",105 % of control
Cc1ccc(S(=O)(=O)[N-]Cl)cc1.[Cl][Pt][Cl],T/C,"endpoint: mean survival time, dose: 4.7 mg/kg/injection, schedule: Q04DX003 (ip), vehicle: saline with Tween-80",95 % of control
same,T/C,"endpoint: mean survival time, dose: 9.4 mg/kg/injection, schedule: Q04DX003 (ip), vehicle: saline with Tween-80",100 % of control
same,T/C,"endpoint: mean survival time, dose: 18.75 mg/kg/injection, schedule: Q04DX003 (ip), vehicle: saline with Tween-80",100 % of control
same,T/C,"endpoint: mean survival time, dose: 37.5 mg/kg/injection, schedule: Q04DX003 (ip), vehicle: saline with Tween-80",103 % of control
same,T/C,"endpoint: mean survival time, dose: 75.0 mg/kg/injection, schedule: Q04DX003 (ip), vehicle: saline with Tween-80",103 % of control
C[n+]1c(-c2cccc(-c3ccccc3)c2)c2cc(N)ccc2c2ccccc21,T/C,"endpoint: mean survival time, dose: 0.78 mg/kg/injection, schedule: Q01DX009 (ip), vehicle: other",92 % of control
same,T/C,"endpoint: mean survival time, dose: 1.56 mg/kg/injection, schedule: Q01DX009 (ip), vehicle: other",92 % of control
same,T/C,"endpoint: mean survival time, dose: 3.13 mg/kg/injection, schedule: Q01DX009 (ip), vehicle: other",104 % of control
same,T/C,"endpoint: mean survival time, dose: 6.25 mg/kg/injection, schedule: Q01DX009 (ip), vehicle: other",108 % of control and 110 % of control
c1cc[c]([Ge]([O][Ge]([c]2ccccc2)([c]2ccccc2)[c]2ccccc2)([c]2ccccc2)[c]2ccccc2)cc1,T/C,"endpoint: mean survival time, dose: 50.0 mg/kg/injection, schedule: Q04DX003 (ip), vehicle: Klucel (hydroxypropylcellulose) (HPC)",96 % of control
same,T/C,[1],96 % of control
same,T/C,[2],96 % of control
COc1ccc(OC)c2nc(-c3ccccc3)c(-c3ccccc3)nc12,T/C,[3],98 % of control
same,T/C,[4],97 % of control
same,T/C,[5],104 % of control
O=C(O)/C=C/S(=O)(=O)O,T/C,"endpoint: mean survival time, dose: 9.5 mg/kg/injection, schedule: Q01DX001 (ip), vehicle: saline",96 % of control
same,T/C,"endpoint: mean survival time, dose: 19.0 mg/kg/injection, schedule: Q01DX001 (ip), vehicle: saline",98 % of control
same,T/C,"endpoint: mean survival time, dose: 38.0 mg/kg/injection, schedule: Q01DX001 (ip), vehicle: saline",98 % of control
same,T/C,"endpoint: mean survival time, dose: 75.0 mg/kg/injection, schedule: Q01DX001 (ip), vehicle: saline",100 % of control
CC(=O)OCC1OC(n2c(Br)nc3c(=O)[nH]c(N)nc32)C(OC(C)=O)C1OC(C)=O (stereo unspecified),T/C,"endpoint: mean survival time, dose: 100.0 mg/kg/injection, schedule: Q04DX003 (ip), vehicle: saline with Tween-80",100 % of control
same,T/C,"endpoint: mean survival time, dose: 200.0 mg/kg/injection, schedule: Q04DX003 (ip), vehicle: saline with Tween-80",105 % of control
same,T/C,"endpoint: mean survival time, dose: 400.0 mg/kg/injection, schedule: Q04DX003 (ip), vehicle: saline with Tween-80",107 % of control
CC(CCC(=O)c1ccccc1)c1ccc2ccccc2c1 (stereo unspecified),T/C,"endpoint: mean survival time, dose: 100.0 mg/kg/injection, schedule: Q01DX009 (ip), vehicle: Klucel (hydroxypropylcellulose) (HPC)",92 % of control
same,T/C,[1],106 % of control
same,T/C,"endpoint: mean survival time, dose: 200.0 mg/kg/injection, schedule: Q01DX009 (ip), vehicle: Klucel (hydroxypropylcellulose) (HPC)",100 % of control
same,T/C,[2],104 % of control
same,T/C,"endpoint: mean survival time, dose: 400.0 mg/kg/injection, schedule: Q01DX009 (ip), vehicle: Klucel (hydroxypropylcellulose) (HPC)",96 % of control
same,T/C,"endpoint: mean survival time, dose: 400.0 mg/kg/injection, schedule: Q04DX003 (ip), vehicle: Klucel (hydroxypropylcellulose) (HPC)",97 % of control
OC1CCC(O)C2C3CCC(C3)C12 (stereo unspecified),T/C,[3],98 % of control
same,T/C,[4],100 % of control
same,T/C,[5],102 % of control
OCC(O)C(O)C(O)C(O)/C=N/O (stereo unspecified),T/C,"endpoint: mean survival time, dose: 50.0 mg/kg/injection, schedule: Q01DX009 (ip), vehicle: saline with Tween-80",97 % of control
same,T/C,[3],97 % of control
same,T/C,[4],104 % of control
CCCCCCCCC(=O)c1c(OC)oc(/C=N/Nc2ccccc2)cc1=O,T/C,"endpoint: mean survival time, dose: 4.7 mg/kg/injection, schedule: Q01DX009 (ip), vehicle: Klucel (hydroxypropylcellulose) (HPC)",103 % of control
same,T/C,"endpoint: mean survival time, dose: 9.38 mg/kg/injection, schedule: Q01DX009 (ip), vehicle: Klucel (hydroxypropylcellulose) (HPC)",103 % of control
same,T/C,"endpoint: mean survival time, dose: 18.75 mg/kg/injection, schedule: Q01DX009 (ip), vehicle: Klucel (hydroxypropylcellulose) (HPC)",103 % of control
same,T/C,"endpoint: mean survival time, dose: 37.5 mg/kg/injection, schedule: Q01DX009 (ip), vehicle: Klucel (hydroxypropylcellulose) (HPC)",98 % of control
same,T/C,"endpoint: mean survival time, dose: 75.0 mg/kg/injection, schedule: Q01DX009 (ip), vehicle: Klucel (hydroxypropylcellulose) (HPC)",92 % of control
CCN=Cc1ccccc1O.CCN=Cc1ccccc1O.[Pd],T/C,"endpoint: mean survival time, dose: 100.0 mg/kg/injection, schedule: Q01DX001 (ip), vehicle: saline with Tween-80",106 % of control
same,T/C,"endpoint: mean survival time, dose: 200.0 mg/kg/injection, schedule: Q01DX001 (ip), vehicle: saline with Tween-80",95 % of control
same,T/C,"endpoint: mean survival time, dose: 400.0 mg/kg/injection, schedule: Q01DX001 (ip), vehicle: saline with Tween-80",95 % of control
